Laboratory results: US10407409B2, “6-(5-hydroxy-1H-pyrazol-1-yl)nicotinamide inhibitors of PHD” (Takeda Pharmaceutical Company Limited, priority 2013, dated 2019)

Columns and labels:
[1] = system: HIF1a protein in H9c2 rat cardiomyocytes; assay: Cell-based HIF-alpha stabilization assay (inhibition of PHD in cells); settings: Rattus norvegicus, H9c2, 24 h, 24 hrs compound incubation, HIF1a protein by ELISA, read-out: Inhibition of PHD in cells (pEC50) (converted)
Summary of the method: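 HIF1a stabilization was measured by ELISA on lysates of H9c2 rat cardiomyocytes after 24 h exposure to 11 serial compound concentrations, expressed relative to the desferrioxamine maximum. Curve fits gave EC50. EC50pos denotes the concentration producing half the desferrioxamine maximal response.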

[2] = molecular target: PHD2 enzyme (residues 181-417) (Homo sapiens (Human), UniProt Q9GZT9); assay: Inhibition of PHD enzyme (LC/MS peptide hydroxylation assay); type: biochemical; settings: PHD2 (residues 181-417) 5 nM, 60 min pre-incubation; -log(IC50), IC50 molar
Sequence of PHD2 enzyme (residues 181-417) (Q9GZT9 181-417): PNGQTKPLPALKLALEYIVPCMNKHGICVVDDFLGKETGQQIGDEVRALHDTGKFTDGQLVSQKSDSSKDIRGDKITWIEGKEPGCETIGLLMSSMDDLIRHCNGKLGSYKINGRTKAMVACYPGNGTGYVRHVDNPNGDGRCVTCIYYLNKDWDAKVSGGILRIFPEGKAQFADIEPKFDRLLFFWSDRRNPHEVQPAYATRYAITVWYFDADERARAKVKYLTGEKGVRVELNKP
Summary of the method: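 Hydroxylated peptide quantified by LC/MS after 60 min turnover of 1 uM biotinylated peptide with 2 uM 2-oxoglutarate and 1 mM ascorbate, stopped by excess tight-binding inhibitor. Beforehand, 5 nM enzyme and compound were preincubated 60 min at RT, pH 7.3 HEPES/KCl/TCEP/FeCl2/BSA buffer. Values as pIC50 (−log molar IC50).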

SMILES	EC50 [1] [nM]	PHD Inhibition (pIC50) [2]
N#Cc1ccc(-c2cnn(-c3ccc(C(=O)NCC(F)(F)F)cn3)c2O)cc1 [Example 77, 6-(4-(4-cyanophenyl)-5-hydroxy-1H-pyrazol-1-yl)-N-(2,2,2-trifluoroethyl)nicotinamide]	1260	7.03
N#Cc1ccc(-c2cnn(-c3ccc(C(=O)NCCF)cn3)c2O)cc1 [Example 78, 6-(4-(4-cyanophenyl)-5-hydroxy-1H-pyrazol-1-yl)-N-(2-fluoroethyl)nicotinamide]	1550	7.07
CCC(C)NC(=O)c1ccc(-n2ncc(-c3ccc(C#N)cc3)c2O)nc1 (stereo not shown) [Example 80, N-(sec-butyl)-6-(4-(4-cyanophenyl)-5-hydroxy-1H-pyrazol-1-yl)nicotinamide]	1070	7.23
N#Cc1ccc(-c2cnn(-c3ccc(C(=O)NC4CCOCC4)cn3)c2O)cc1 [Example 81, 6-(4-(4-cyanophenyl)-5-hydroxy-1H-pyrazol-1-yl)-N-(tetrahydro-2H-pyran-4-yl)nicotinamide]	4790	7.2
N#Cc1ccc(-c2cnn(-c3ccc(C(=O)NC4CCC(F)(F)CC4)cn3)c2O)cc1 [Example 84, 6-(4-(4-cyanophenyl)-5-hydroxy-1H-pyrazol-1-yl)-N-(4,4-difluorocyclohexyl)nicotinamide]	2240	6.91
N#Cc1ccc(-c2cnn(-c3ccc(C(=O)NC4CCN(CCO)CC4)cn3)c2O)cc1 [Example 85, 6-(4-(4-cyanophenyl)-5-hydroxy-1H-pyrazol-1-yl)-N-(1-(2-hydroxyethyl)piperidin-4-yl)nicotinamide]	2240	6.94
CC[C@H](C)NC(=O)c1ccc(-n2ncc(-c3ccc(C#N)cc3)c2O)nc1 [Example 87, (S)—N-(sec-butyl)-6-(4-(4-cyanophenyl)-5-hydroxy-1H-pyrazol-1-yl)nicotinamide]	603	7.66
CC(C)OCCNC(=O)c1ccc(-n2ncc(-c3ccc(C#N)cc3)c2O)nc1 [Example 89, 6-(4-(4-cyanophenyl)-5-hydroxy-1H-pyrazol-1-yl)-N-(2-isopropoxyethyl)nicotinamide]	708	7.24
N#Cc1ccc(-c2cnn(-c3ccc(C(=O)NCCCN4CCOCC4)cn3)c2O)cc1 [Example 91, 6-(4-(4-cyanophenyl)-5-hydroxy-1H-pyrazol-1-yl)-N-(3-morpholinopropyl)nicotinamide]	933	7.18
N#Cc1ccc(-c2cnn(-c3ccc(C(=O)NC4CCN(C5CC5)CC4)cn3)c2O)cc1 [Example 93, 6-(4-(4-cyanophenyl)-5-hydroxy-1H-pyrazol-1-yl)-N-(1-cyclopropylpiperidin-4-yl)nicotinamide]	871	7.08
Cc1cc(C#N)ccc1-c1cnn(-c2ccc(C(=O)NCC3CCN(C)CC3)cn2)c1O [Example 94, 6-(4-(4-cyano-2-methylphenyl)-5-hydroxy-1H-pyrazol-1-yl)-N-((1-methylpiperidin-4-yl)methyl)nicotinamide]	93.3	7.9
Cc1cc(C#N)ccc1-c1cnn(-c2ccc(C(=O)NCCCN(C)C)cn2)c1O [Example 95, 6-(4-(4-cyano-2-methylphenyl)-5-hydroxy-1H-pyrazol-1-yl)-N-(3-(dimethylamino)propyl)nicotinamide]	83.2	7.9
Cc1cc(C#N)ccc1-c1cnn(-c2ccc(C(=O)NCC3CCN(C)C3)cn2)c1O (stereo not shown) [Example 96, 6-(4-(4-cyano-2-methylphenyl)-5-hydroxy-1H-pyrazol-1-yl)-N-((1-methylpyrrolidin-3-yl)methyl)nicotinamide]	56.2	8
Cc1cc(C#N)ccc1-c1cnn(-c2ccc(C(=O)NCCCN3CCCCC3C)cn2)c1O (stereo not shown) [Example 97, 6-(4-(4-cyano-2-methylphenyl)-5-hydroxy-1H-pyrazol-1-yl)-N-(3-(2-methylpiperidin-1-yl)propyl)nicotinamide]	56.2	8
CCN1CCC(NC(=O)c2ccc(-n3ncc(-c4ccc(C#N)cc4C)c3O)nc2)CC1 [Example 98, 6-(4-(4-cyano-2-methylphenyl)-5-hydroxy-1H-pyrazol-1-yl)-N-(1-ethylpiperidin-4-yl)nicotinamide]	120	7.9
Cc1cc(C#N)ccc1-c1cnn(-c2ccc(C(=O)NCCCN3CCCCC3)cn2)c1O [Example 99, 6-(4-(4-cyano-2-methylphenyl)-5-hydroxy-1H-pyrazol-1-yl)-N-(3-(piperidin-1-yl)propyl)nicotinamide]	53.7	7.9

SMILES	EC50 [1] [nM]	PHD Inhibition (pIC50) [2]
Cc1cc(C#N)ccc1-c1cnn(-c2ccc(C(=O)NC3CCN(C)CC3)cn2)c1O [Example 100, 6-(4-(4-cyano-2-methylphenyl)-5-hydroxy-1H-pyrazol-1-yl)-N-(1-methylpiperidin-4-yl)nicotinamide]	75.9	8.1
Cc1cc(C#N)ccc1-c1cnn(-c2ccc(C(=O)NCC3CN(C)CCO3)cn2)c1O (stereo not shown) [Example 101, 6-(4-(4-cyano-2-methylphenyl)-5-hydroxy-1H-pyrazol-1-yl)-N-((4-methylmorpholin-2-yl)methyl)nicotinamide]	158	8.1
Cc1cc(C#N)ccc1-c1cnn(-c2ccc(C(=O)NCCC3CCCN3C)cn2)c1O (stereo not shown) [Example 102, 6-(4-(4-cyano-2-methylphenyl)-5-hydroxy-1H-pyrazol-1-yl)-N-(2-(1-methylpyrrolidin-2-yl)ethyl)nicotinamide]	58.9	7.9
COC[C@H]1CCC[C@H]1NC(=O)c1ccc(-n2ncc(-c3ccc(C#N)cc3C)c2O)nc1 [Example 103, 6-(4-(4-cyano-2-methylphenyl)-5-hydroxy-1H-pyrazol-1-yl)-N-((1R,2S)-2-(methoxymethyl)cyclopentyl)nicotinamide]	178	8.1
Cc1cc(C#N)ccc1-c1cnn(-c2ccc(C(=O)NCCCN3CCOCC3)cn2)c1O [Example 104, 6-(4-(4-cyano-2-methylphenyl)-5-hydroxy-1H-pyrazol-1-yl)-N-(3-morpholinopropyl)nicotinamide]	95.5	8.2
Cc1cc(C#N)ccc1-c1cnn(-c2ccc(C(=O)NCCCN3CCCC3)cn2)c1O [Example 105, 6-(4-(4-cyano-2-methylphenyl)-5-hydroxy-1H-pyrazol-1-yl)-N-(3-(pyrrolidin-1-yl)propyl)nicotinamide]	61.7	8
Cc1cc(C#N)ccc1-c1cnn(-c2ccc(C(=O)NCCCn3ccnc3)cn2)c1O [Example 106, N-(3-(1H-imidazol-1-yl)propyl)-6-(4-(4-cyano-2-methylphenyl)-5-hydroxy-1H-pyrazol-1-yl)nicotinamide]	355	8
CNC(=O)c1ccc(-n2ncc(-c3ccc(C#N)cc3C)c2O)nc1 [Example 107, 6-(4-(4-cyano-2-methylphenyl)-5-hydroxy-1H-pyrazol-1-yl)-N-methylnicotinamide]	129	8.4
CCNC(=O)c1ccc(-n2ncc(-c3ccc(C#N)cc3C)c2O)nc1 [Example 108]	110	8.3
CN(C)CC(C)(C)NC(=O)c1ccc(-n2ncc(-c3ccc(C#N)cc3)c2O)nc1 [Example 109, 6-(4-(4-cyanophenyl)-5-hydroxy-1H-pyrazol-1-yl)-N-(1-(dimethylamino)-2-methylpropan-2-yl)nicotinamide]	1200	7.7
COC[C@H]1CCC[C@H]1NC(=O)c1ccc(-n2ncc(-c3ccc(C#N)cc3)c2O)nc1 [Example 110, 6-(4-(4-cyanophenyl)-5-hydroxy-1H-pyrazol-1-yl)-N-((1R,2S)-2-(methoxymethyl)cyclopentyl)nicotinamide]	1230	8.1
CN1CCOC(CNC(=O)c2ccc(-n3ncc(-c4ccc(C#N)cc4)c3O)nc2)C1 (stereo not shown) [Example 111, 6-(4-(4-cyanophenyl)-5-hydroxy-1H-pyrazol-1-yl)-N-((4-methylmorpholin-2-yl)methyl)nicotinamide]	2140	7.8
CCOCCNC(=O)c1ccc(-n2ncc(-c3ccc(C#N)cc3)c2O)nc1 [Example 112, 6-(4-(4-cyanophenyl)-5-hydroxy-1H-pyrazol-1-yl)-N-(2-ethoxyethyl)nicotinamide]	1380	7.32
CC(NC(=O)c1ccc(-n2ncc(-c3ccc(C#N)cc3)c2O)nc1)C1CCCO1 (stereo not shown) [Example 113, 6-(4-(4-cyanophenyl)-5-hydroxy-1H-pyrazol-1-yl)-N-(1-(tetrahydrofuran-2-yl)ethyl)nicotinamide]	1380	7.22
COCCC(C)NC(=O)c1ccc(-n2ncc(-c3ccnc(OC)c3)c2O)nc1 (stereo not shown) [Example 114, 6-(5-hydroxy-4-(2-methoxypyridin-4-yl)-1H-pyrazol-1-yl)-N-(4-methoxybutan-2-yl)nicotinamide]	257	6.55
CC(C)N1CCC(NC(=O)c2ccc(-n3ncc(-c4ccc(C#N)cc4)c3O)nc2)CC1 [Example 115, 6-(4-(4-cyanophenyl)-5-hydroxy-1H-pyrazol-1-yl)-N-(1-isopropylpiperidin-4-yl)nicotinamide]	1820	6.91
